Source: patent publication US9675592B2, “Methods and compositions for bacteria infections” (priority 2013, dated 2017)
Read-outs that look alike come from different tables or passages of the source.

Columns and labels:
[1] = test system: vraSR promoter (Pvra-lux reporter in strain 923); assay: Primary screen, relative luminescence (vraSR expression)
[2] = test system: test strain 923 pPvra-lux (USA300 MRSA); assay: Primary screen, relative growth in presence of oxacillin; details: compound 10 μM with oxacillin 2 μg/mL, absorbance 24 h, <0.50 = dead cells = hit
[3] = primary screen, compound 10 μM with oxacillin 2 μg/mL, <0.50 = vraSR repressed = hit

| Structure (SMILES) | RL avg (relative luminescence) [1, 3] | RG avg (relative growth) [2] | RL avg (relative luminescence) [1] |
| --- | --- | --- | --- |
| O=C(Nc1nnc(-c2cccs2)o1)c1ccc(S(=O)(=O)N2CCCc3ccccc32)cc1 [F0559-350] | 0.11 | 0.43 | – |
| O=C(Nc1nnc(-c2ccc(Cl)cc2)o1)c1ccc2ncsc2c1 [F1374-836] | 0.31 | −0.01 | – |
| COc1ccccc1-c1nnc(NC(=O)c2sc3ccccc3c2Cl)o1 [F1374-253] | 0.32 | 0.04 | – |
| O=C(Nc1nnc(-c2ccncc2)o1)c1ccc(Oc2ccccc2)cc1 [F0608-1161] | −0.07 | 0.00 | – |
| O=C(Nc1nnc(-c2cc(Cl)sc2Cl)o1)c1cccs1 [F1374-2664] | 0.32 | 0.00 | – |
| CC(C)Cn1c(N)c(C(=O)NCc2cccs2)c2nc3ccccc3nc21 [F3225-3356] | 0.01 | 0.39 | – |
| CCOc1cc(-c2nnc(NC(=O)c3ccc4ccccc4c3)o2)cc(OCC)c1OCC [F2517-182] | −0.04 | 0.46 | – |
| COc1ccc(Cc2nnc(NC(=O)c3ccc(S(=O)(=O)N(C)Cc4ccccc4)cc3)o2)cc1 [F2368-617] | −0.07 | −0.04 | – |
| C=CCN(CC=C)S(=O)(=O)c1ccc(C(=O)Nc2nnc(-c3cc(OC)c(OC)c(OC)c3)o2)cc1 [F0559-279] | −0.09 | 0.40 | – |
| Cc1ccc(-c2nnc(NC(=O)c3nc4ccccc4s3)o2)c(C)c1 [F2518-183] | −0.04 | 0.00 | – |
| COc1cc(-c2nnc(NC(=O)c3ccc(S(=O)(=O)N(C)c4ccccc4)cc3)o2)cc(OC)c1OC [F0559-307] | −0.08 | −0.04 | – |
| O=C(COc1ccc(Cl)cc1Cl)Nc1nnc(-c2ccc(Cl)s2)o1 [F1374-1102] | – | 0.13 | 0.49 |
| CCOc1cc(-c2nnc(NC(=O)C(c3ccccc3)c3ccccc3)o2)cc(OCC)c1OCC [F2517-165] | −0.07 | 0.31 | – |
| COc1ccccc1-c1nnc(NC(=O)c2cc(-c3cccs3)nc3ccccc23)o1 [F1374-255] | 0.36 | 0.00 | – |
| O=C(Nc1nnc(-c2ccc(C(F)(F)F)cc2)o1)c1cc2ccccc2o1 [F1374-2134] | 0.38 | 0.20 | – |
| O=C(Nc1nnc(-c2ccc(Br)cc2)o1)c1ccc2c(c1)CCCC2 [F2518-517] | −0.08 | 0.01 | – |
| CSc1ccccc1-c1nnc(NC(=O)c2cc(Cl)sc2Cl)o1 [F2645-67] | 0.37 | 0.02 | – |
| CC1CN(S(=O)(=O)c2ccc(C(=O)Nc3nnc(-c4ccc(F)cc4)o3)cc2)CC(C)O1 (stereo not drawn) [F0559-107] | −0.06 | −0.05 | – |
| Cc1onc(-c2ccccc2Cl)c1C(=O)Nc1nnc(-c2cc(Cl)sc2Cl)o1 [F1374-2706] | 0.25 | 0.02 | – |
| COc1cc(OC)cc(-c2nnc(NC(=O)c3ccc(S(=O)(=O)N(CC(C)C)CC(C)C)cc3)o2)c1 [F0559-264] | −0.10 | −0.04 | – |

| Structure (SMILES) | RL avg (relative luminescence) [1, 3] | RG avg (relative growth) [2] | RL avg (relative luminescence) [1] |
| --- | --- | --- | --- |
| Cc1ccc(C)c(-c2nnc(NC(=O)c3ccc(S(=O)(=O)N4CC(C)OC(C)C4)cc3)o2)c1 (stereo not drawn) [F2518-334] | −0.04 | 0.00 | – |
| O=C(Nc1nnc(-c2ccncc2)o1)c1ccc(-c2ccccc2)cc1 [F0608-1080] | −0.04 | 0.03 | – |
| COc1ccc(-c2nnc(NC(=O)c3cc(Cl)sc3Cl)o2)cc1OC [F2767-204] | −0.09 | −0.02 | – |
| CSc1ccccc1-c1nnc(NC(=O)c2ccc(F)cc2)o1 [F2645-12] | 0.51 | 0.41 | – |
| Cc1cccc(C(=O)Nc2nnc(-c3ccc(Br)cc3)o2)c1 [F2518-436] | −0.06 | 0.00 | – |
| Cc1ccc(-c2nnc(NC(=O)c3ccc(Cl)s3)o2)c(C)c1 [F2518-186] | −0.09 | 0.01 | – |
| CCCCN(C)S(=O)(=O)c1ccc(C(=O)Nc2nnc(-c3ccc(Br)s3)o2)cc1 [F5093-101] | −0.04 | −0.02 | – |
| Cc1ccc(C)c(-c2nnc(NC(=O)c3cccc(Cl)c3)o2)c1 [F2518-295] | −0.09 | 0.01 | – |
| COc1ccc(OCc2noc(CNC(=O)Nc3ccc(Cl)c(Cl)c3)n2)cc1 [F5882-3269] | −0.02 | −0.01 | – |
| COc1cccc2cc(C(=O)Nc3nnc(-c4cc(Cl)sc4Cl)o3)oc12 [F1374-2680] | 0.42 | 0.00 | – |
| COc1ccc(-c2nnc(NC(=O)c3cccc(C(F)(F)F)c3)o2)c(OC)c1 [F1374-562] | 0.38 | 0.02 | – |
| COc1ccc(-c2nnc(NC(=O)c3ccc(Br)s3)o2)cc1 [F1374-455] | 0.33 | 0.03 | – |
| O=C(Nc1nnc(-c2cc(Cl)sc2Cl)o1)c1ccc2ncsc2c1 [F1374-2676] | 0.34 | 0.01 | – |
| COc1ccc(-c2nnc(NC(=O)c3ccc(C(=O)c4ccccc4)cc3)o2)cc1 [F1374-443] | 0.39 | 0.05 | – |
| COc1cccc(-c2nnc(NC(=O)c3cccc(Oc4ccccc4)c3)o2)c1 [F1374-396] | 0.34 | 0.04 | – |
| COc1cccc(-c2nnc(NC(=O)c3cccc(C(F)(F)F)c3)o2)c1 [F1374-352] | 0.41 | 0.03 | – |
| O=C(Nc1nnc(-c2ccc(Cl)s2)o1)c1cccc(F)c1 [F1374-1062] | 0.46 | 0.01 | – |
| O=C(Nc1nnc(-c2cc3ccccc3o2)o1)c1ccc2ncsc2c1 [F2273-492] | 0.24 | 0.25 | – |
| O=C(Nc1nnc(-c2ccco2)o1)c1ccc(-c2ccccc2)cc1 [F0608-410] | −0.07 | −0.07 | – |
| O=C(Nc1nc(-c2ccccn2)cs1)c1cc(Cl)ccc1Cl [F0447-277] | −0.11 | −0.06 | – |

| Structure (SMILES) | RL avg (relative luminescence) [1, 3] | RG avg (relative growth) [2] | RL avg (relative luminescence) [1] |
| --- | --- | --- | --- |
| COc1cccc2cc(C(=O)Nc3nnc(-c4ccc(Cl)cc4Cl)o3)oc12 [F2518-1563] | −0.16 | 0.00 | – |
| O=C(Nc1nnc(-c2cc3ccccc3o2)o1)c1ccc(F)cc1 [F2273-390] | 0.20 | 0.27 | – |
| O=C(Nc1nnc(C2COc3ccccc3O2)o1)c1ccc(S(=O)(=O)N2CCc3ccccc3C2)cc1 (stereo not drawn) [F0608-728] | −0.01 | −0.02 | – |
| COc1cccc(-c2nnc(NC(=O)c3ccc(S(=O)(=O)N(C)C4CCCCC4)cc3)o2)c1 [F0559-158] | −0.07 | 0.03 | – |
| O=C(Nc1nnc(Cc2ccccc2)o1)c1cc(Cl)sc1Cl [F2368-63] | −0.02 | −0.01 | – |
| Cc1ccc(C)c(-c2nnc(NC(=O)c3ccc(S(=O)(=O)N4CCCc5ccccc54)cc3)o2)c1 [F2518-342] | −0.02 | 0.00 | – |
| O=C(Nc1nnc(-c2ccc3c(c2)OCCO3)o1)c1cccc(Cl)c1 [F0608-123] | −0.04 | −0.02 | – |
| COc1cccc(-c2nnc(NC(=O)c3ccc(Cl)cc3)o2)c1 [F1374-320] | 0.32 | 0.04 | – |
| O=C(Nc1nnc(-c2ccc(Br)s2)o1)c1ccc(Cl)s1 [F5093-40] | −0.02 | 0.03 | – |
| O=C(Nc1nnc(-c2cc3ccccc3o2)o1)c1cccc(Cl)c1 [F2273-385] | 0.16 | 0.28 | – |
| O=C(Nc1nnc(-c2ccc3c(c2)OCCO3)o1)c1cc(-c2ccccc2)nc2ccccc12 [F0608-46] | −0.10 | −0.06 | – |
| Cc1ccc(-c2nnc(NC(=O)c3ccc(C(=O)c4ccccc4)cc3)o2)c(C)c1 [F2518-168] | −0.07 | −0.03 | – |
| CC1CN(S(=O)(=O)c2ccc(C(=O)Nc3nnc(-c4ccc(Cl)s4)o3)cc2)CC(C)O1 (stereo not drawn) [F0559-377] | −0.09 | −0.08 | – |
| COc1ccccc1-c1nnc(NC(=O)c2ccc(-c3ccccc3)cc2)o1 [F1374-220] | 0.35 | 0.01 | – |
| O=C(Nc1nnc(-c2ccc(Br)s2)o1)c1nc2ccccc2s1 [F5093-37] | −0.03 | 0.02 | – |
| COc1ccccc1-c1nnc(NC(=O)c2ccc(S(=O)(=O)N(C)c3ccccc3)cc2)o1 [F0559-127] | −0.11 | −0.05 | – |
| O=C(Nc1nnc(-c2ccc3c(c2)CCCC3)o1)c1ccc(Cl)s1 [F0608-662] | −0.10 | −0.07 | – |
| O=C(Nc1nnc(-c2ccc3c(c2)CCCC3)o1)c1ccc(Cl)cc1Cl [F0608-661] | −0.04 | 0.11 | – |
| CC1(C)COCN1S(=O)(=O)c1ccc(C(=O)Nc2nnc(-c3ccc(Cl)s3)o2)cc1 [F0559-390] | −0.11 | −0.06 | – |
| CCOc1cccc2cc(-c3nnc(NC(=O)c4sc5ccccc5c4Cl)o3)oc12 [F2273-238] | 0.19 | 0.26 | – |
